Results published in article doi:10.1101/2025.07.11.664294 (bioRxiv, 2025).

Tests used:
MMP-2 [1] = experiment: MMP-2 inhibition assay (Enzo MMP-2 drug discovery kit); type: biochemical, human; conditions: NNGH positive control
Experimental: The MMP-2 inhibition assay was performed using the Enzo Life Sciences MMP-2 drug discovery kit. and the quenched fluorogenic substrate OmniMMP RED. Reference substrate was diluted to a final concentration of 5 μM, while the MMP-2 enzyme was diluted to 58 mU/μL, and the N-Isobutyl-N-(4-methoxyphenylsulfonyl)glycyl hydroxamic acid (NNGH) inhibitor was diluted to a concentration of 1/200 in assay buffer. […] The assay was performed using a black 96-well microplate. Fluorescence was measured at excitation/emission wavelengths of 545/576 nm, with a cutoff at 570 nm using Gen5 microplate reader (BioTeK, Shoreline, WA). Baseline fluorescence was recorded before adding NNGH inhibitor which was used as a positive control for MMP-2 inhibition. Reaction mixtures in the plate were incubated at 37 °C for 10 min, and fluorescence was measured at 10 min intervals for the first 30 min, then at 30 min intervals until 2 h had elapsed. Percentage of inhibition of MMP-2 activity by Ctx and its analogs was calculated as percent of control. Statistical analysis was performed using ANOVA with GraphPad Prism software, version 10.0.3.

U87MG glioblastoma cells = experiment: Wound-healing scratch assay; type: cell-based, human; conditions: 50 μM peptide, 24 h, mitomycin C 3 μg/ml; wound closure by ImageJ
Experimental: The U87MG GBM cell line (U-87 MG, ATCC® HTB-14) was cultured in Dulbecco’s Modified Eagle Medium (DMEM) and appropriate growth factors at 37°C in a humidified 5% CO2 atmosphere. Cells were seeded at 40,000 cells per well in 96-well plates and allowed to adhere overnight. Then, mitomycin C (3 μg/ml) was added to inhibit further cell replication, and 50 μM Ctx and its analogs were added. Untreated wells served as a control. Wounds were created by manually scratching the cell monolayer with a 200 μL multi-channel pipette tip, and plates were analyzed at 0 h and 24 h time points using the MetaXpress image acquisition software (Molecular Devices, San Jose, CA). The ImageJ Ver. 1.54f program (NIH (National Institutes of Health) was used for image analysis. Wound closure was quantified using the Wound_Healing_Size_tool_plugin., analyzing the percentage of wound area covered by migrating cells. To determine significance, statistical analysis was performed using appropriate methods (t-test or ANOVA) using GraphPad Prism software, version 10.0.3.

recombinant MMP-2 = experiment: Differential scanning fluorimetry (DSF); type: binding, human; conditions: 1 μM MMP-2, 30 μM (Ctx) or 50 μM (P75 and P76) peptide, PBS pH 7.1, SYPRO-orange, average and SD of n ≥ 3
Experimental: The melting temperatures (Tm) of recombinant MMP-2 and its complexes with peptides were ascertained using BioRad CFX384 Touch real-time PCR (Hercules, CA, USA). The experiments were performed as previously described. The unfolding of the protein was detected using the fluorescent SYPRO-orange dye (Invitrogen, Carlsbad, CA, USA). MMP-2 and prospective ligand peptides were dissolved in 7.1 pH phosphate buffered saline (154 mM NaCl, 5.6 mM Na2PO4, 1.1mM KH2PO4), and the reaction mixture was made to a final concentration of 1 μM of protein, either 30 μM (Ctx) or 50 μM (P75 and P76) of peptide, and 1000x dilution of the SYPRO-Orange dye stock from the manufacturer. Excitation and emission filters of the dye were set at 450–490 nm and 560–580 nm, respectively. The temperature for the reaction was held at 25 °C for 5 min, and then a gradient of 25 °C to 95 °C was applied at a rate of 0.3 °C/min, and the fluorescence was recorded. To determine Tm of the protein, the first derivatives of melting curves were plotted using GraphPad Prism software, version 10.0.3.

Neuropilin-1 (NRP-1) = target: T1, Neuropilin-1 (NRP-1) (Homo sapiens, UniProt O14786); experiment: Surface plasmon resonance (SPR); type: binding; conditions: NRP-1 immobilized on NTA chip, steady-state affinity model, peptides 500 μM to 3.90 μM, n=3, 4 replicates, read-out: dissociation constant (KD) for NRP-1
T1 construct: containing amino acid residues Phe22-Lys644, with a poly-histidine tag at the C-terminus; purchased ACROBiosystems NR1-H5228
T1 sequence (O14786 22-644 isoform O14786-2): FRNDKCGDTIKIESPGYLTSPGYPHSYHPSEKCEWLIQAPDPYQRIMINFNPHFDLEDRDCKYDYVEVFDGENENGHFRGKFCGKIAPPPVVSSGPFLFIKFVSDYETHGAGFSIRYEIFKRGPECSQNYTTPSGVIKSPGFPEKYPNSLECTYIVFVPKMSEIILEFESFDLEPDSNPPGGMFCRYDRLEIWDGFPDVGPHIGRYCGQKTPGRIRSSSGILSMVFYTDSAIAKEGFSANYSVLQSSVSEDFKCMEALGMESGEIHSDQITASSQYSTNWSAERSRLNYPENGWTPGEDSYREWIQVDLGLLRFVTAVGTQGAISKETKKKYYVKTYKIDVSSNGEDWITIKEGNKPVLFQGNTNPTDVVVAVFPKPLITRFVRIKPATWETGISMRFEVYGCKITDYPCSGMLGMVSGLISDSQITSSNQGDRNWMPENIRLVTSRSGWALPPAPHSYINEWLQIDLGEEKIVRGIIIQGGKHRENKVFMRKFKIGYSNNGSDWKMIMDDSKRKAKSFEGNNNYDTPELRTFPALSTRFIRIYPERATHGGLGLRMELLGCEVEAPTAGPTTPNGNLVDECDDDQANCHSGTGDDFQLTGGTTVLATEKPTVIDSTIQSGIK
Experimental: (§1) Surface plasmon resonance (SPR) reagents, plates, and the NTA chip were purchased from GE Healthcare Life Sciences, now Cytiva (Marlborough, MA, USA). Measurements were performed using the Biacore 8000 SPR System (Marlborough, MA. USA). The running buffer used for protein immobilization and peptide binding consisted of 20 mM Tris, 150 mM NaCl, […] and 0.0005% Tween-20, adjusted to pH 7.4. MMP-2 and NRP-1 were immobilized onto the NTA chip at 15 nM and 25 nM concentration, respectively. Peptides were injected over the immobilized proteins using two-fold serial dilutions from 500 μM to 3.90 μM. Three experiments with four replicates of each were performed. The SPR response curves generated from the Biacore Insight Evaluation Software were fitted to a steady-state affinity model to obtain an equilibrium dissociation constant (KD) for each peptide — protein interaction.

MMP-2 [2] = experiment: Surface plasmon resonance (SPR); type: binding, human; conditions: MMP-2 immobilized on NTA chip; peptides 500 μM to 3.90 μM; pH 7.4
Experimental: as §1

[3] = peptides at 1 μM, 50 μM and 100 μM, quenched fluorogenic substrate, one-way ANOVA

Row | Substance | inhibition of MMP-2 enzymatic activity (MMP-2 [1]; [3]) | inhibition of U-87MG cell migration (U87MG glioblastoma cells) | Change in melting temperature ΔTm ± SD (recombinant MMP-2) | Kd (Neuropilin-1 (NRP-1)) | binding to MMP-2 by SPR (MMP-2 [2]) | inhibition of MMP-2 enzymatic activity (MMP-2 [1]; Ctx at 1 μM, 5 μM, 10 μM, 15 μM and 20 μM, quenched fluorogenic substrate OmniMMP RED)
1 | Ac-[Cyc(28,33)]Ctx(27-34)-NH2 [Peptide P78] | not statistically significant | about 30% |  |  |  | 
2 | Ac-[Cys^26,Ser^28,33,Cyc(26,35)]Ctx(24-36)-NH2 [Peptide P76] | not statistically significant |  | 0.63 ± 0.36 °C |  |  | 
3 | Ac-[Ser^35,Cyc(28,33)]Ctx(24-36)-NH2 [Peptide P75] | not statistically significant | Inhibition of U-87MG cell migration | 0.76 ± 1.56 °C | 330 ± 146 µM |  | 
4 | Chlorotoxin [Ctx, reference compound] | not statistically significant |  |  |  | did not bind | did not inhibit MMP-2 activity
